Source: patent US7888286B2, “Method of selectively controlling morning glory (Ipomoea) spp” (Bayer CropScience AG, priority 2006, dated 2011)
Where a name gives a salt, the structure may show the parent alone.

Assays:
[1] = system: morning glory spp.; assay: Control machine-spraying of glufosinate (salt) on soybean inter-ridge: herbicidal effect; type: in vivo; conditions: 500 mL/10 a in 100 L/10 a water
Protocol: (§1) Soybean cultivation in the Tokai region is often carried out with large scale by farming associates and large scale farmhouses. Under such circumstances, morning glory spp. cause a serious problem in soybean fields during its growth period, and its controlling method is required to be established quickly. In soybean fields in Anjo City, Aichi Prefecture showing a problem of morning glory spp., a test for proving applicability of controlling morning glory spp. was performed using a control machine-spraying intending laborsaving.
(§2) A commercially available spraying apparatus was attached to the front side of a riding-type control machine, and glufosinate was sprayed from near ground edge. The nozzle position can be varied depending on ridge width and soybean height. In a theory of spraying a herbicide, the herbicide is introduced from a herbicide tank through a hose so that the herbicide can be sprayed on a lower part between ridges (suspending mode). Some farmhouses devise by themselves this spraying apparatus.
In spraying (FIGS. 1, 2 and 3), morning glory spp. developed almost all over the field, and some of them coiled around soybean, the peak portion thereof extending up to over the head portion of soybean. FIG. 1 is a photograph showing full view of glufosinate spraying. FIG. 2 is a photograph showing glufosinate (salt) sprayed part. FIG. 3 is a photograph showing a herbicidal process of glufosinate (salt). […] FIG. 4 is a photograph showing the killing effect of glufosinate (salt) ranging to the peak portion (shown with an arrow) of the stem of Ipomoea triloba L. (14 days after spraying, August 23). […] This effect appeared even in the peak portion of the stem extending up to over the head portion of the soybean, and in this portion, leaves and stems of morning glory spp. turned to yellow. […] From these phenomena, it was believed that the morning glory spp. show very higher sensitivity to glufosinate (salt) than soybean.

[2] = system: Ipomoea triloba L.; assay: Morning glory spp. control test: glufosinate (salt) sprayed only on lower half portion of hill; type: in vivo; design: key: +++ complete death; ++ almost death; + partial death; − no effect; conditions: treated Aug. 13, 2005, examined August 23
Protocol: (§3) In the case of spraying of glufosinate (salt) only on the lower half portion of a hill of morning glory spp:
(§4) Ipomoea hederacea Jacq. and Ipomoea triloba L. generated in the form of grapevine and at the edge of a soybean field in Anjo City, Aichi Prefecture were tested. A 200-fold diluted solution of glufosinate was sprayed only on the lower half portion of the hill while covering the upper half portion thereof with plastic film so that the solution was not sprayed thereon. Thereafter, effects on the lower and upper half portions were observed.

[3] = system: Abutilon theophrasti; assay: Herbicidal property on weeds; conditions: in vivo
[4] = system: Ipomoea lacunosa L.; assay: Morning glory spp. control test: glufosinate (salt) sprayed only on upper portion of stem (pot test); type: in vivo; design: key to Effect, leaf 6 / Effect, leaf 5 / Effect, leaf 4 / Effect, leaf 3 / Effect, leaf 2 / Effect, leaf 1 / Effect, root / Effect, peak portion of stem / Effect, leaf 8 / Effect, leaf 7: +++ complete death; ++ almost death; + partial death; − no effect
Protocol: In the case of spraying of glufosinate (salt) only on the upper portion of morning glory spp:
Ipomoea lacunosa L. (eight leaves) in a pot was tested. A 200-fold diluted solution of glufosinate (salt) was sprayed only on the upper portion of a stem while preventing spraying on the lower portion thereof. Thereafter, effects on respective portions were observed.

[5] = system: Aeschynomene indica; assay: Herbicidal property on weeds; conditions: in vivo
[6] = system: soybean; assay: Control machine-spraying of glufosinate (salt) on soybean inter-ridge: phytotoxicity and bean weight of soybean; type: in vivo; conditions: for Bean weight: soybean field with rampant morning glory spp., 500 mL/10 a sprayed August 9, crop November 11, non-sprayed district 96 ± 21
Protocol: as §1, §2

[7] = system: HIROHAFUURINHOZUKI; assay: Herbicidal property on weeds; conditions: in vivo
[8] = system: morning glory spp.; assay: Herbicidal property on weeds; type: in vivo; conditions: for Herbicidal activity: all of the tested morning glory spp.
[9] = system: Sida spinosa L.; assay: Herbicidal property on weeds; conditions: in vivo
[10] = system: Solanum carolinense; assay: Herbicidal property on weeds; conditions: in vivo
[11] = system: Ipomoea hederacea Jacq.; assay: Morning glory spp. control test: glufosinate (salt) sprayed only on lower half portion of hill; type: in vivo; design: key to Effect, upper half portion of hill / Effect, lower half portion of hill: +++ complete death; ++ almost death; + partial death; − no effect
Protocol: as §3, §4

[12] = system: morning glory spp. such as Ipomoea triloba L. and Ipomoea hederacea Jacq.; assay: Morning glory spp. control test with bialaphos solution (soybean field); type: in vivo; conditions: for Herbicidal effect 1 week after: water 100 L/10 a, sprayed up to 20 cm above ground
Protocol: On Aug. 9, 2005, a bialaphos solution (active ingredient amount: 18%, used in the form of the sodium salt bialaphos-sodium, amount calculated for bialaphos) was sprayed (solution amount: 500 to 1500 mL/10 a, water amount: 100 L/10 a) to morning glory spp. (height: 55 cm to 70 cm) such as Ipomoea triloba L. and Ipomoea hederacea Jacq. generated between ridges in a soybean field and coiled around soybean, from land surface up to a height of 20 cm above ground, and the herbicidal effect thereafter was observed.

[13] = not sprayed, 200-fold diluted solution sprayed from peak to between sixth and seventh leaves, examined November 6
[14] = sprayed region, 200-fold diluted solution sprayed on upper portion of stem, treated Oct. 23, 2005, examined November 6
[15] = scattering to soybean, 500 mL/10 a

CP(=O)(O)CCC(N)C(=O)O (stereo not shown) [glufosinate (salt), glufosinate]
Herbicidal effect 4 days after spraying ([1]; August 13): most of leaves at grapevine-form parts of the morning glory spp. died
Herbicidal effect 14 days after spraying ([1]; August 23): most of the morning glory spp. died up to the peak portion of the stem
Onset of herbicidal effect after spraying ([1]; soybean field): observed from the next day after spraying
Effect, lower half portion of hill ([2]; 200-fold diluted solution sprayed on lower half portion (sprayed portion)): +++
Effect, upper half portion of hill ([2]; 200-fold diluted solution sprayed on lower half portion only, upper half not sprayed, hills around 70 cm): +++
Herbicidal activity [3]: high activity
Effect, leaf 1 [4, 13]: −
Effect, leaf 2 [4, 13]: −
Effect, leaf 3 [4, 13]: −
Effect, leaf 4 [4, 13]: −
Effect, leaf 5 [4, 13]: ++
Effect, leaf 6 [4, 13]: ++
Effect, root [4, 13]: −
Effect in the lower leaves and in root after spraying only the upper portion of the stem ([4]; see Table 2): not observed
Effect under the sprayed region after spraying only the upper portion of the stem ([4]; see Table 2): observed in one to two leaves under the sprayed region
Effect, leaf 7 [4, 14]: +++
Effect, leaf 8 [4, 14]: +++
Effect, peak portion of stem [4, 14]: +++
Herbicidal activity [5]: high activity
Phytotoxicity in soybean on spraying only the lower portion of a stem of morning glory spp. ([6]; control machine spraying in soybean field): scarce phytotoxicity
Phytotoxicity in the cotyledon and the first leaf of soybean [6, 15]: observed
Phytotoxicity in the upper leaves of soybean [6, 15]: little phytotoxicity
Bean weight ([6]; listed as Glufosinate (salt)): 193 ± 29 kg/10 a
Bean weight ([6]; listed as glufosinate): 193 kg/10 a
Herbicidal activity [7]: high activity
Herbicidal activity at low herbicidal amount ([8]; 100 mL/10 a): high activity
Herbicidal activity [8]: high activity
Herbicidal activity [9]: high activity
Herbicidal activity [10]: high activity
Effect, lower half portion of hill ([11]; 200-fold diluted solution sprayed on lower half portion (sprayed portion), treated Aug. 13, 2005, examined August 23): +++
Effect, upper half portion of hill ([11]; 200-fold diluted solution sprayed on lower half portion only, upper half not sprayed, treated Aug. 13, 2005, examined August 23, hills around 70 cm): +++
Where activity appeared after spraying only the lower half portion of the hill ([11]; morning glory spp. (Ipomoea hederacea Jacq. and Ipomoea triloba L., see Table 1)): appeared not only in the lower half portion of the hill but also in the peak thereof

C[C@H](NC(=O)[C@H](C)NC(=O)[C@@H](N)CCP(C)(=O)O)C(=O)O [bialaphos solution, bialaphos]
Herbicidal effect 1 week after ([12]; solution amount 500 mL/10 a): died up to the peak portion of vine
Herbicidal effect 1 week after ([12]; solution amount 1000 mL/10 a): died up to the peak portion of vine
Herbicidal effect 1 week after ([12]; solution amount 1500 mL/10 a): died up to the peak portion of vine
Onset of effect after the treatment ([12]; sprayed from land surface up to 20 cm above ground, 500 to 1500 mL/10 a): observed from the next day after the treatment

CC(C)N.O=C(O)CNCP(=O)(O)O [glyphosate isopropylammonium]
Herbicidal activity at the field level ([8]; at the field level in this test range): insufficient
Manifestation of the activity ([8]; on these plants (morning glory spp. and the other tested weeds)): specifically slow manifestation of the activity

CC(C)N1C(=O)c2ccccc2NS1(=O)=O [Pentazone]
Herbicidal activity [3]: high activity
Herbicidal activity [8]: lower activity
